Results from PMC8657792, “Interaction Profiles of Central Nervous System Active Drugs at Human Organic Cation Transporters 1–3 and Human Plasma Membrane Monoamine Transporter” (International Journal of Molecular Sciences, 2021).
Where two headings read alike, the source gives them in different places.

What was measured:
hOCT1 [1] = target: T1, hOCT1 (Homo sapiens, UniProt O15245); conditions: Table S1, supplementary reference list, cited from earlier work; for IC50: read-out: IC50 literature hOCT1; for Ki: read-out: IC50 literature hOCT1 (Ki), Ki values
T1 construct: expressed in transfected cells
T1 sequence (O15245 1-554): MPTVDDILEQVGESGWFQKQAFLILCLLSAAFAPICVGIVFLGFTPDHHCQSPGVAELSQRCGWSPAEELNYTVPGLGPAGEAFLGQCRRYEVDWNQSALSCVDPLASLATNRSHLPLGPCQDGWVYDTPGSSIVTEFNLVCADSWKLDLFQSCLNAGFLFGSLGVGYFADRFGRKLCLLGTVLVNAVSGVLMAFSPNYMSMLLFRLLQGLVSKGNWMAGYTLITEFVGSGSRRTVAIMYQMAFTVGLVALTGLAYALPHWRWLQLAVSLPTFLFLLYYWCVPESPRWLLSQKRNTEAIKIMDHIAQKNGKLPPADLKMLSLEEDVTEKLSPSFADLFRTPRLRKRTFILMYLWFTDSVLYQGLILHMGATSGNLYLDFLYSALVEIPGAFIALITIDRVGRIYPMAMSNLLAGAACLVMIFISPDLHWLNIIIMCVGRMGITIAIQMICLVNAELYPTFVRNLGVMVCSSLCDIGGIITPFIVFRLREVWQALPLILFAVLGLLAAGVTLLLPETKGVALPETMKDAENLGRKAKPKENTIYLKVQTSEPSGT

hOCT2 [2] = target: T2, hOCT2 (Homo sapiens, UniProt O15244); conditions: Table S1, supplementary reference list, cited from earlier work; for IC50: read-out: IC50 literature hOCT2; for Ki: read-out: IC50 literature hOCT2 (Ki), Ki values
T2 construct: expressed in transfected cells
T2 sequence (O15244 1-555): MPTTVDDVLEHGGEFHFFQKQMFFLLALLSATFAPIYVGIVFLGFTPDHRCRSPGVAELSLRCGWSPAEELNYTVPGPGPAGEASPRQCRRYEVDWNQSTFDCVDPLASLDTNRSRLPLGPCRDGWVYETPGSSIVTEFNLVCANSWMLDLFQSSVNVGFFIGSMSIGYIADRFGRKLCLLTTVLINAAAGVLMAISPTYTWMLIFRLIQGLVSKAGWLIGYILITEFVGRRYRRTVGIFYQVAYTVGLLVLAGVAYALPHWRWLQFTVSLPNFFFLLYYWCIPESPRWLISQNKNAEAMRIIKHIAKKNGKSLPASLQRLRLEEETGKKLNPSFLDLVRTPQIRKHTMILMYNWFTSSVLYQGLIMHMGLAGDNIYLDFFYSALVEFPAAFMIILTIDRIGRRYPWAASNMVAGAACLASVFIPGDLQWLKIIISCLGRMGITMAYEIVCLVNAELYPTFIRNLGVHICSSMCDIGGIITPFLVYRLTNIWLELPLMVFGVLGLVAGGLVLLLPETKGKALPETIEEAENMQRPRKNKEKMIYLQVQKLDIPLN

hOCT3 [3] = target: T3, hOCT3 (Homo sapiens, UniProt O75751); conditions: Table S1, supplementary reference list, cited from earlier work; for Ki: read-out: IC50 literature hOCT3 (Ki), Ki values
T3 construct: expressed in transfected cells
T3 sequence (O75751 1-556): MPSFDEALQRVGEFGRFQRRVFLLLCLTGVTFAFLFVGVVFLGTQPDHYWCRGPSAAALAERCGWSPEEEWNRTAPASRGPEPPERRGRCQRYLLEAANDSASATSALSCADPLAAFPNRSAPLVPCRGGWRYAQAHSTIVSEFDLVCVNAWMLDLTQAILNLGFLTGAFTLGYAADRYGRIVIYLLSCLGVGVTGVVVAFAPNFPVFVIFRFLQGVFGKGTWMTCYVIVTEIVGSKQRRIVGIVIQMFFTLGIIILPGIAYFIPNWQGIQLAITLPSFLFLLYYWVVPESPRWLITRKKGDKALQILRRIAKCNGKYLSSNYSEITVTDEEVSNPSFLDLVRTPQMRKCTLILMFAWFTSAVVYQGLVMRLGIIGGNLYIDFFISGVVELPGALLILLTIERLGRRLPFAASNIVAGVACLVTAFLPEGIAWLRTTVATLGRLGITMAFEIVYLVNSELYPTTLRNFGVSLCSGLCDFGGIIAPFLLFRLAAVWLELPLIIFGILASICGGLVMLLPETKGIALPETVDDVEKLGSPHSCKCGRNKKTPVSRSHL

hPMAT [4] = target: T4, hPMAT (Homo sapiens, UniProt Q7RTT9); conditions: Table S1, supplementary reference list, read-out: IC50 literature hPMAT, cited from earlier work
T4 construct: expressed in transfected cells
T4 sequence (Q7RTT9 1-530): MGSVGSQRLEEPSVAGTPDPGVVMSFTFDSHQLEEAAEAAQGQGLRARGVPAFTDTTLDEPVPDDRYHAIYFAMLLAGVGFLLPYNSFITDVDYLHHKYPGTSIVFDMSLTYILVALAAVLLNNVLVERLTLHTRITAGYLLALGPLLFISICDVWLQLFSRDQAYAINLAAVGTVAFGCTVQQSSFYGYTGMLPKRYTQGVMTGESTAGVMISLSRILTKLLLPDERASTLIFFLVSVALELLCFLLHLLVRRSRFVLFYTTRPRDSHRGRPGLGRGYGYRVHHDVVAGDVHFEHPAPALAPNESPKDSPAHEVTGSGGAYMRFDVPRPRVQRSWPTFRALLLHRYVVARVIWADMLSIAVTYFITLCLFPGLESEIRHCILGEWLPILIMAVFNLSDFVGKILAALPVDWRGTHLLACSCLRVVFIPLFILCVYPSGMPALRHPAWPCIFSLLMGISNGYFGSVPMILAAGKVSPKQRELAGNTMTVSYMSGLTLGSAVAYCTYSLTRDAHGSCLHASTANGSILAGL

mOCT3 = test system: mOCT3; design: method as in earlier work; conditions: Table S1, hOCT3 column, marked (mOCT3); supplementary reference list; read-out: IC50 literature (mOCT3); cited from earlier work
hOCT1 [5] = target: T1, hOCT1; assay: [3H]MPP+ uptake inhibition assay, HEK293 cells stably expressing hOCT1; format: cell-based
Experimental: (§1) HEK293 cells were transfected with a plasmid, encoding the transporter of interest and an N-terminal YFP-tag, carried out using jetPRIME ^© (Polyplus Transfection; (VWR International GmbH, Vienna, Austria)) reagent (for a 10 cm dish with 1–2 × 10^6 cells in 10 mL serum containing medium at 60–80% confluency: 500 μ L jetPRIME ^© buffer, 10 μ g DNA and 20 μ L jetPRIME ^© reagent) and selection pressure maintained for two weeks [2, 54, 55]. Subsequently, 500,000 cells were FACS-sorted (fluorescence-activated cell sorting) according to expression level to establish cell lines stably expressing the protein of interest. […] For uptake inhibition assays, cells were cultured at a subconfluent (80–90% density) state in high-glucose Dulbecco’s Modified Eagle Medium (DMEM ), enriched with 10% heat-inactivated Fetal Bovine Serum (FBS) and penicillin/streptomycin (PS; 100 U × 100 mL ^−1 , each). Selection pressure was maintained by the addition of geneticin (50 mg × mL ^−1 ) at 37 ^∘ C and 5% CO 2 in a humidified incubator. At a density of 60,000 cells per well, HEK293 cells expressing the respective transporter were seeded onto poly-D-lysine-coated wells 24 h prior to uptake inhibition experiments in a final volume of 200 μ L per well.
(§2) Prior to the addition of the respective compounds, DMEM was removed from all wells and replaced with 200 μ L of Krebs-HEPES-buffer (KHB; 10 mM HEPES, 120 mM NaCl, 3 mM KCl, 2 mM CaCl 2 , 2 mM MgSO 4 and 20 mM D-glucose, pH adjusted to 7.3) at room temperature. Cells were exposed to a pre-incubation solution containing the compound of interest in the respective concentration (dissolved in Krebs-HEPES-buffer) for 10 min with a total volume of 50 μ L, which was then replaced with a 50 μ L uptake solution containing 0.05 μ M of tritiated 1-methyl-4-phenylpyridinium ([ ^3 H]MPP ^+ ) as substrate, and the compound of interest in respective concentrations, for 10 minutes each. Finally, uptake was terminated by washing with 200 μ L of ice-cold (4 ^∘ C) KHB, after which cells were lysed with 200 μ L of 1% sodium dodecyl sulphate (SDS). After transferring the solution of each well into 6 mL counting vials containing 2 mL of scintillation cocktail, the vials were measured with a beta-scintillation counter for quantification of the uptake of tritiated substrate. […] To obtain specific data, non-specific uptake was assessed in the presence of 100 μ M D22 and subtracted from the total data. The 100% values were defined as uptake in the absence of a tested substance, defining maximal uptake capacity. Inhibitions of the compound of interest were described as a percentage of the maximal uptake capacity.
(§3) Half-maximal inhibitory concentration ( IC50 ) values of each substance were calculated and plotted using GraphPad Prism 8.4.3 (GraphPad Software Inc., San Diego, CA, USA). IC50 was determined by non-linear regression, solving the equation Y=Bottom+(Top−Bottom)/(1+10^X−LogEC50) . […] All data stem from a minimum of three separate experiments (n≥ 3) executed in triplicates and are shown as mean ± SD.

hOCT2 [6] = target: T2, hOCT2; assay: [3H]MPP+ uptake inhibition assay, HEK293 cells stably expressing hOCT2; format: cell-based
Experimental: as §1, §2, §3

hOCT3 [7] = target: T3, hOCT3; assay: [3H]MPP+ uptake inhibition assay, HEK293 cells stably expressing hOCT3; format: cell-based
Experimental: as §1, §2, §3

hPMAT [8] = target: T4, hPMAT; assay: [3H]MPP+ uptake inhibition assay, HEK293 cells stably expressing hPMAT; format: cell-based
Experimental: as §1, §2, §3

CCCC(C(=O)c1ccccc1)N1CCCC1 (stereo not drawn) [α-PVP]
IC50 (hOCT1 [1]; ref 13): 1.31 µM | IC50 (hOCT2 [2]; ref 13): 5.62 µM | IC50 (hOCT2 [2]; ref 14): 17.5 ± 2.5 µM | IC50 (hOCT3 [3]; ref 13, read-out: IC50 literature hOCT3): 1630 µM | IC50 (hOCT3 [3]; ref 14, read-out: IC50 literature hOCT3): > 1000 µM | IC50 (hPMAT [4]; ref 13): 13.4 µM

CN1C(=O)CN=C(c2ccccc2)c2cc(Cl)ccc21 [Diazepam, diazepam]
IC50 (mOCT3): 40 µM

CN(C)CCCC1(c2ccc(F)cc2)OCc2cc(C#N)ccc21 (stereo not shown) [Citalopram]
IC50 (hOCT1 [1]; ref 1): 13.2 µM | IC50 (hOCT2 [2]; ref 1): 115 µM | IC50 (hPMAT [4]; ref 4): 117 µM

CNC(C)Cc1ccc2c(c1)OCO2 (stereo not shown) [MDMA, 3,4-methylenedioxymethamphetamine]
IC50 (hOCT1 [5]): 1.14 µM | IC50 (hOCT2 [6]): 2.71 µM | IC50 (hOCT3 [7]): 154 µM | Effect on substrate uptake by hOCT3 (in words) (hOCT3 [7]; [3H]MPP+ uptake, HEK293 hOCT3): not inhibiting uptake | IC50 (hPMAT [8]): 7.77 µM | Ki (hOCT1 [1]): 24.2 ± 9.2 µM | Ki (hOCT2 [2]): 1.63 ± 0.62 µM | Ki (hOCT3 [3]): 73.6 ± 50.3 µM

C[C@H](N)Cc1ccccc1 [d-Amphetamine, d-amphetamine]
IC50 (hOCT1 [5]): 8.39 µM | IC50 (hOCT2 [6]): 2.21 µM | IC50 (hOCT3 [7]): 337 µM | IC50 (hPMAT [8]): 71.8 µM | Ki (hOCT1 [1]): 202 ± 68 µM | IC50 (hOCT1 [1]): 96.7 ± 37 µM | Ki (hOCT2 [2]): 10.5 ± 2.6 µM | IC50 (hOCT2 [2]): 20.3 ± 16.9 µM | IC50 (hOCT3 [3]; marked (5-HT), read-out: IC50 literature hOCT3 (5-HT)): 24.1 ± 70 µM | IC50 (hOCT3 [3]; marked (DA), read-out: IC50 literature hOCT3 (DA)): 41.5 ± 7.5 µM | Ki (hOCT3 [3]): 460 ± 140 µM | IC50 (hOCT3 [3]; read-out: IC50 literature hOCT3, ref 8): 363 ± 56.4 µM | IC50 (hOCT3 [3]; read-out: IC50 literature hOCT3, ref 9): 42 ± 7 µM

CC(NC(C)(C)C)C(=O)c1cccc(Cl)c1 (stereo not shown) [Bupropion, bupropion]
IC50 (hOCT1 [5]; HEK293 stably expressing hOCT1, 0.05 μM [3H]MPP+, 10 min pre-incubation, 10 min uptake, brackets in Table S1 = 95%-CI, n.s. = non-significant, read-out: IC50 hOCT1 (inhibitory potency, [3H]MPP+ uptake)): 5.36 µM | IC50 (hOCT2 [6]; HEK293 stably expressing hOCT2, 0.05 μM [3H]MPP+, 10 min pre-incubation, 10 min uptake, brackets in Table S1 = 95%-CI, n.s. = non-significant, read-out: IC50 hOCT2 (inhibitory potency, [3H]MPP+ uptake)): 32.9 µM | IC50 (hOCT3 [7]; HEK293 stably expressing hOCT3, 0.05 μM [3H]MPP+, 10 min pre-incubation, 10 min uptake, brackets in Table S1 = 95%-CI, n.s. = non-significant, read-out: IC50 hOCT3 (inhibitory potency, [3H]MPP+ uptake)): 186 µM | IC50 (hPMAT [8]; HEK293 stably expressing hPMAT, 0.05 μM [3H]MPP+, 10 min pre-incubation, 10 min uptake, brackets in Table S1 = 95%-CI, n.s. = non-significant, read-out: IC50 hPMAT (inhibitory potency, [3H]MPP+ uptake)): 97 µM | IC50 (hOCT1 [1]; ref 1): 161 µM | IC50 (hOCT2 [2]; ref 1): 28.6 µM | IC50 (hOCT2 [2]; ref 2): 32.2 µM | IC50 (hOCT3 [3]; ref 1, read-out: IC50 literature hOCT3): 738 µM | IC50 (hPMAT [4]; ref 3): 115 µM
